Measurements as given in patent publication USRE48461E1, “Modulation of androgen receptor expression” (Ionis Pharmaceuticals, Inc., priority 2012, dated 2021).

Columns and labels:
TMPRSS2 mRNA = experiment: Time-course TMPRSS2 expression in C4-2B cells; format: cell-based, human
Method: C4-2B cells were plated at 1,000 cells per well in complete medium. […] ISIS 549148 was included as a negative control. […] After a treatment period of 8 hours, 24 hours, and 48 hours, AR expression was measured with primer probe set hAR-LTS00943. Results are presented in Tables 70-72 as percent expression of AR, relative to non-treated cells.
Expression analysis of prostate-specific antigen (PSA) and TMPRSS2 were also analyzed. Results are presented in Tables 73-75 as percent inhibition of PSA expression and Tables 76-78 as percent inhibition of TMPRSS2 expression, relative to non-treated cells.

C4-2 cells = experiment: C4-2 cell proliferation (complete or CSS+DHT medium); format: cell-based, human; conditions: C4-2 cells, 5 days
Method: After a treatment period of 5 days in complete medium or CSS+1 nM DHT medium, the proliferative capacity of the cancer cells was measured with using CellTiter 96® AQueous One Solution or CellTiter-Glo® Cell Proliferation kit (Promega), following the manufacturer's instructions. […] The proliferative capacity of cells cultured in CSS medium without DHT is 17% of untreated control levels.

full length AR mRNA = experiment: Full-length AR RNA in VCaP cells (complete, CSS+DHT medium); format: cell-based, human; conditions: RNAiMax, 48 hrs
Method: Cells were plated at 10,000 cells per well. […] After an incubation period of 48 hrs, RNA levels of full length AR, the V7 variant, PSA and TMPRSS2 were measured.
After an incubation period of 48 hrs, RNA levels of full length AR, the V7 variant, PSA and TMPRSS2 were measured. The data is presented in Tables 108 expressed as percent expression of gene levels compared to the untreated control.
Cells were plated at 15,000 cells per well and cultured in CSS media for 16 hours. […] After 4 hrs, 1 nM DHT was added. […] After an incubation period of 48 hrs, RNA levels of AR, PSA and TMPRSS2 were measured.

VCaP cells [1] = experiment: VCaP cell proliferation; format: cell-based, human; conditions: VCaP cells, 5 days
Method: After a treatment period of 5 days in complete medium or CSS+1 nM DHT medium, the proliferative capacity of the cancer cells was measured with using CellTiter 96® AQueous One or CellTiter-Glo® Solution Cell Proliferation kit (Promega), following the manufacturer's instructions. […] Treatment with ISIS oligonucleotides in CSS+DHT medium reduced the proliferative capacity to a greater extent than treatment with MVD-3100. The proliferative capacity of cells cultured in CSS medium without DHT is 12% of untreated control levels.

VCaP cells [2] = experiment: VCaP apoptosis (Caspase-Glo 3/7); format: cell-based, human; conditions: VCaP cells, complete medium, 72 hours
Method: After a treatment period of 72 hours in complete medium, apoptosis of the cancer cells was measured with Caspase-Glo 3/7 assay (Promega). Results are presented in Tables 117 and 118 as percent apoptosis of the cells, relative to non-treated cells.

MDA-MB-453 tumor = experiment: Tumor volume in MDA-MB-453 breast cancer orthotopic model; format: in vivo, NSG mice; conditions: Study 2, MDA-MB-453 model, NSG mice, 50 mg/kg s.c. 5 days per week for 2 weeks

## GGCTACTACGCCGTCA (3-10-3 (S)-cEt gapmer, chemistry not fully specified) [ISIS 549148, reference compound]
TMPRSS2 mRNA; 0.04 μM
  Percent inhibition of TMPRSS2 expression compared to the control group in 8 hours: 5%
  Percent inhibition of TMPRSS2 expression compared to the control group in 24 hours: 29%
  Percent inhibition of TMPRSS2 expression compared to the control group in 48 hours: 0%
TMPRSS2 mRNA; 0.2 μM
  Percent inhibition of TMPRSS2 expression compared to the control group in 8 hours: 0%
  Percent inhibition of TMPRSS2 expression compared to the control group in 24 hours: 10%
  Percent inhibition of TMPRSS2 expression compared to the control group in 48 hours: 4%
TMPRSS2 mRNA; 1 μM
  Percent inhibition of TMPRSS2 expression compared to the control group in 8 hours: 0%
  Percent inhibition of TMPRSS2 expression compared to the control group in 24 hours: 29%
  Percent inhibition of TMPRSS2 expression compared to the control group in 48 hours: 0%
TMPRSS2 mRNA; 5.0 μM
  Percent inhibition of TMPRSS2 expression compared to the control group in 8 hours: 0%
  Percent inhibition of TMPRSS2 expression compared to the control group in 24 hours: 10%
  Percent inhibition of TMPRSS2 expression compared to the control group in 48 hours: 0%
C4-2 cells; CSS + DHT medium, 0.04 μM
  Proliferation (% untreated control): 102 % untreated control
C4-2 cells; CSS + DHT medium, 0.2 μM
  Proliferation (% untreated control): 82 % untreated control
C4-2 cells; CSS + DHT medium, 1 μM
  Proliferation (% untreated control): 82 % untreated control
C4-2 cells; CSS + DHT medium, 5.0 μM
  Proliferation (% untreated control): 91 % untreated control
C4-2 cells; complete medium, 0.04 μM
  Proliferation (% untreated control): 106 % untreated control
C4-2 cells; complete medium, 0.2 μM
  Proliferation (% untreated control): 112 % untreated control
C4-2 cells; complete medium, 1 μM
  Proliferation (% untreated control): 91 % untreated control
C4-2 cells; complete medium, 5.0 μM
  Proliferation (% untreated control): 94 % untreated control
Full length AR mRNA; CSS medium, 1.34 nM
  Percent inhibition of full-length AR: 0%
Full length AR mRNA; CSS medium, 4.0 nM
  Percent inhibition of full-length AR: 0%
Full length AR mRNA; CSS medium, 13.4 nM
  Percent inhibition of full-length AR: 0%
Full length AR mRNA; CSS medium, 40 nM
  Percent inhibition of full-length AR: 0%
Full length AR mRNA; complete medium, 1.34 nM
  Percent inhibition of full-length AR: 0%
Full length AR mRNA; complete medium, 4.0 nM
  Percent inhibition of full-length AR: 8%
Full length AR mRNA; complete medium, 13.4 nM
  Percent inhibition of full-length AR: 5%
Full length AR mRNA; complete medium, 40 nM
  Percent inhibition of full-length AR: 17%
VCaP cells [1]; CSS + DHT medium, 1.34 nM
  Proliferation (% untreated control): 114 % untreated control
VCaP cells [1]; CSS + DHT medium, 4.0 nM
  Proliferation (% untreated control): 123 % untreated control
VCaP cells [1]; CSS + DHT medium, 13.4 nM
  Proliferation (% untreated control): 104 % untreated control
VCaP cells [1]; CSS + DHT medium, 40 nM
  Proliferation (% untreated control): 92 % untreated control
VCaP cells [1]; complete medium, 1.34 nM
  Proliferation (% untreated control): 98 % untreated control
VCaP cells [1]; complete medium, 4.0 nM
  Proliferation (% untreated control): 98 % untreated control
VCaP cells [1]; complete medium, 13.4 nM
  Proliferation (% untreated control): 113 % untreated control
VCaP cells [1]; complete medium, 40 nM
  Proliferation (% untreated control): 106 % untreated control
VCaP cells [2]; 1.34 nM
  Apoptosis (% untreated control): 131 % untreated control
VCaP cells [2]; 4.0 nM
  Apoptosis (% untreated control): 108 % untreated control
VCaP cells [2]; 13.4 nM
  Apoptosis (% untreated control): 103 % untreated control
VCaP cells [2]; 40 nM
  Apoptosis (% untreated control): 146 % untreated control
MDA-MB-453 tumor; Day 0
  Tumor volumes: 148
MDA-MB-453 tumor; Day 8
  Tumor volumes: 303
MDA-MB-453 tumor; Day 13
  Tumor volumes: 312
MDA-MB-453 tumor; Day 20
  Tumor volumes: 365
MDA-MB-453 tumor; Day 23
  Tumor volumes: 413
MDA-MB-453 tumor; Day 27
  Tumor volumes: 490
MDA-MB-453 tumor; Day 29
  Tumor volumes: 550
